Data published in patent publication US9289444B2, “Composition for promoting hematogenesis containing quercetin 3-O-β-(2″-galloyl)-rhamnopyranoside as active ingredient” (Chungbuk National University Industry Academic Cooperation …, priority 2011, dated 2016).

Key:
[1] = system: BMNCs; assay: Histochemistry (Wright-Giemsa) and immunocytochemistry for erythroid cells (TER-119); format: cell-based, mouse; conditions: 7 days culture
Procedure: In order to investigate whether QGR can stimulate the differentiation of hematopoietic stem cells into erythroid cells, the morphology of cells was observed and immunocytochemistry against TER-119, the marker of erythroid progenitors, was carried out. BMNCs were harvested 7 days after incubation with either rEpo (3 units/ml) or QGR (100 or 200 μM/ml) washed with PBS, re-suspended at a concentration of 2×10^5 cells/ml in PBS and subjected (100 μl/slide) to cytospin for 5 min at 1,000 rpm (Cytospin3; Shandon, ThermoElectron, Waltham, Mass., USA). All slides were fixed using cold methanol. Wright-Giemsa stain was performed for morphologic analysis. Immunocytochemistry against TER-119 was carried out for cellular lineage with 100-fold dilution according to the manufacturer's instruction using avidin biotinylated enzyme complex kit (VECTASTAIN, Vector Laboratories and Burlingame, Calif., USA).

[2] = system: bone marrow failure mouse induced by busulphan (BU); assay: Flow cytometric analysis of bone marrow cells in BU bone marrow failure model; format: in vivo, Balb/c mice
Procedure: Bone marrow failure model induced by administering busulphan (BU) was designed according to the procedures previously described by Molyneux et al (Cell Biol Toxicol 27, 13-40, 2011) and the scheme is shown in FIG. 8. BU (Sigma chemicals, Poole, Dorset, UK) was dissolved in acetone to a final concentration of 18.8 mg/ml, diluted five-fold with distilled water, and was intraperitoneally administered three times for 5 days with the dose of 0.2 ml BU solution per mouse. Equal amount of five-fold diluted acetone solution without BU was administered to vehicle control group. QGR was dissolved in dimethylsulfoxide and diluted with distilled water to a final concentration of 1.25%. Mice were orally administered every two days with QGR (0.25 mg/mouse) for 63 days. Seven or eight mice were sacrificed on days of 1, 5, 10, 16, 25, 40, 49, and 63 after BU administration and were investigated to confirm the effect of QGR to recover bone marrow failure.
In order to investigate whether QGR has an activity to recover bone marrow failure induced by BU administration, the expression of markers associated with hematopoietic stem cells/progenitors (Sca-1^+ or c-kit^+), bone mesenchymal stem/progenitor cells (Sca-1^+CD44^+), apoptotic hematopoietic stem cells (c-Kit^+7-aminoactinomycin D^+) were measured by flow cytometry. The retrieved BMNCs with the concentration of 0.6×10^6 cells/ml were precipitated by centrifugation, re-suspended in 100 μl of PBS containing 0.02% sodium azide and 2% FBS, and incubated with 10 μl of mouse anti-CD16/CD32 Ab (eBioScience, San Diego, Calif., USA) as FC receptor blocker for 3 min at room temperature. After that, monoclonal antibodies for c-kit (2B8, BD Pharmingen, USA), Sca-1 (D7, eBioscience), CD44 (IM7, eBioscience) were added and further incubated for 30 min under the temperature of 4° C. Isotype-matched irrelevant rat IgG2b-FITC (eBioscience) and isotype-matched irrelevant rat IgG2a-PE (eBioscience) were used as negative control. The flow cytometric analysis was carried out using FACS Calibur (Becton Dickinson, Oxnard, Calif., USA) and the percentage of positively stained cells was determined. The double staining of c-kit and 7-AAD (Calbiochem-Novabiochem, Nottingham, UK) was carried out according to the procedures previously described by Philpott et al (Exp Hematol, 23, 1642-1648, 1995).

CC1OC(Oc2c(-c3ccc(O)c(O)c3)oc3cc(O)cc(O)c3c2=O)C(OC(=O)c2cc(O)c(O)c(O)c2)C(O)C1O (stereo not drawn) [QGR, quercetin 3-O-β-(2″-galloyl)-rhamnopyranoside]
increased: number of enucleated erythroid cells ([1]; Wright-Giemsa staining) | TER-119+ cells (immunocytochemical analysis) ([1]; vs negative control) | number of cells positive for Sca-1 (HSPCs) ([2]; after 10 days of QGR administration, vs positive control group) | number of c-kit positive cells (HSPCs) ([2]; at 10 days after QGR administration, significant difference from positive control at 16 days)
no change: number of MSPCs (CD44+Sca-1+ cells) ([2]; time course, remarkably decreased in positive control group) | number of apoptotic HSPCs ([2]; time course, significantly increased from 10 days in positive control group)
